pIC50: −log10 of the molar value.
Assays:
aggregated Aβ1-42 = aggregated Aβ1-42 (Homo sapiens (Human), UniProt P05067); test: Aβ1-42 degradation assay on pre-formed aggregates, thioflavin T fluorescence (Test Example 3); assay type: biochemical; conditions: aggregated Aβ, 1 hr at 37° C., read-out: IC50 (Aβ1-42 aggregate degradation, Table 2 head)
Description: Aβ1-42 (Peptide Institute) was dissolved in a 0.1% NH3 solution at a concentration of 60 μM, and incubated for 24 hr at 37° C. to form the aggregation. 25 μM of the aggregated Aβ solution diluted by 100 mM phosphate buffer (pH 7.4) and the compound dilution containing 2% DMSO were mixed in equal amount. The mixtures were incubated for 1 hr at 37° C. in a black 96-well plate. After incubation, 6 μM thioflavin T (Sigma) in 100 mM of glycine-NaOH buffer, pH 8.5, was added, and fluorescence was measured for excitation at 440 nm and emission at 486 nm. The solution with DMSO only, instead of the compound solution, was used as a negative control. The activity was calculated as a percentage of the negative control.

Aβ1-42 = Aβ1-42 (Homo sapiens (Human), UniProt P05067); test: Aβ aggregation inhibition assay, thioflavin T fluorescence (Test Example 2); assay type: biochemical; conditions: 24 hr at 37° C.
Chain of Aβ1-42 (P05067 672-713): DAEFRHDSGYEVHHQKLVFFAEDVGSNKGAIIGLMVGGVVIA
Description: Aβ3-42 aggregation Inhibition Assay
Aβ1-42 was dissolved in a 0.1% NH3 solution at a concentration of 100 μM and centrifuged for 1.5 hr at 200,000 g, and the supernatant are used in the assay. […] The mixtures were incubated for 24 hr at 37° C. in a black 96-well plate.

[1] = tested on: cerebral cortex cells of embryonic Wistar rat; test: Cytoprotection from Aβ1-42-induced cell cytotoxicity, MTT (Test Example 4); assay type: cell-based; conditions: compound 24 hr, then 5 μM Aβ1-42 for 48 hr
Description: Cytoprotection from Aβ1-42-Induced Cell Cytotoxicity
Cerebral cortex was obtained from 19-20 day-old embryonic Wistar rat. The tissue was minced, dissociated using scalpel blades and Pasteur pipette, and centrifuged at 100 rpm. Precipitated cells were filtered using […] cell strainer, and single cells were prepared. These cells were suspended in Eagle's Minimum Essential Medium (EMEM) containing 10% Fetal bovine serum, and plated into 48-well tissue culture plates (Becton Dickinson) at 200 μL/well and 1.7×10^5 cells/cm^2. Cultures were incubated at 37° C. in a humidified atmosphere of 5% CO2.
After 3, 5, and 7 days in culture, the medium was replaced.
After 9 days, compounds were dissolved in DMSO and diluted in culture media so that the final concentration of DMSO in culture media was 0.1%, and each solution was added to each well at […] for 24 hr. The control solution contained 0.1% DMSO.
After 24 hr, Aβ1-42 was dissolved in a 0.1% NH3 solution at a concentration of 500 μM and diluted in culture media to a final concentration of 5 μM, and the Aβ solution was added to each well at […] for 48 hr. After 48 hr, cultures were treated with 0.5% MTT solution (Nacalai Tesque) for 35 min. The MTT solution was replaced with 2-propanol (200 μL), and the culture plates were shook to dissolve formazan. Absorption of the solution was measured at 570 nm.

recombinant human BACE-1 = recombinant human BACE-1 (Homo sapiens (Human), UniProt P56817); test: Calculation of 50% inhibitory concentration (IC50) of BACE-1 (Test Example 5); assay type: biochemical; conditions: 37° C., 2.5 hr, fluorescent substrate peptide
Chain of recombinant human BACE-1 (P56817 46-501): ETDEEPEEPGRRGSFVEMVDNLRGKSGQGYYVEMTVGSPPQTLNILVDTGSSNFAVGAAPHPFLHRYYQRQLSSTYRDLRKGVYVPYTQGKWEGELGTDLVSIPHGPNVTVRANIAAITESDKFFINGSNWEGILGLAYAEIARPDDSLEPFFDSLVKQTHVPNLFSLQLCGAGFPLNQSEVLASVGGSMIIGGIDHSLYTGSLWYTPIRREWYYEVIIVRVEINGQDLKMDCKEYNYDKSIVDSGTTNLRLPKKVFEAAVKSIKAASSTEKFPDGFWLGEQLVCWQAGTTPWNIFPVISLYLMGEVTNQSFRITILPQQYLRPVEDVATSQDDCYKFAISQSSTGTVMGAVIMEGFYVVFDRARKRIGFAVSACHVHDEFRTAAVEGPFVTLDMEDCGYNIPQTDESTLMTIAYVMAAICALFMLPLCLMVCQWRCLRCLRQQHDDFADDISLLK
Description: Compounds were dissolved in 0.1 M sodium acetate buffer (with 150 mM sodium chloride, pH 4.5) to each concentration with DMSO (concentration of compounds: 0.3, 0.9, 3.0, 9.0, and 30.0). The final concentration of DMSO was 10%. The solution with no compound was used as a negative control. 15 μL of these solutions, recombinant human BACE-1 (1.0 U/ml, Invitrogen), and the fluorescent substrate peptide (2.5 nM) were mixed in a black 384-well plate (Costar). Then, mixtures were incubated in the dark at 37° C. for 2.5 hr. The fluorescence intensities of the mixtures were measured at 540 nm for excitation and at 590 nm for emission. The inhibition ratio was calculated as a percentage of the negative control. The sequence of the peptide was […] and labeled with Cy3 at Ser-1 and with Cy5Q at Lys-9. Final concentrations of compounds were as follows: […].

[2] = biological target: recombinant human β-secretase (rhBACE-1) (Homo sapiens (Human), UniProt P56817); test: β-Secretase enzyme inhibition assay (Test Example 1); assay type: biochemical; conditions: compound solution 3 μM (FIG. 1 legend: 1.0 μM), 37° C., 2 hr, fluorescent substrate peptide
Chain of recombinant human β-secretase (rhBACE-1) (P56817 46-501): as above
Description: β-Secretase Enzyme Inhibition Assay
Compounds were dissolved in dimethylsulfoxide (DMSO), and further diluted in 0.1 M sodium acetate buffer (with 150 mM sodium chloride, pH 4.5). The solution with no compound was used as a negative control. Then, 100 μL of these solutions (compound concentration: 3 μM), 1 μL of recombinant human β-secretase (rhBACE-1, R&D), and 5 μL of the fluorescent substrate peptide were mixed in a black 96-well plate (Nunc). After mixtures were incubated in the dark at 37° C. for 2 hr, the fluorescence intensities of the mixtures were measured by fluorescence microplate reader (Wallac) at 540 nm for excitation and at 590 nm for emission. The inhibition ratio was calculated as a percentage of the negative control. The sequence of the peptide was […] and labeled with fluorescent donor (Cy3) at Ser-1 and with quencher (Cy5Q) at Lys-9, respectively (Invitrogen).

Chain of aggregated Aβ1-42 (P05067 672-713): as the sequence (P05067 672-713) above

Row | Compound | melting point [°C] | inhibitory effect on BACE-1 activity (IC50 shown in FIG. 2) (recombinant human BACE-1) | further results
1 | COc1cc(/C=C/C(=O)CC(=O)/C=C/c2ccc(S(C)(=O)=O)cc2)ccc1O [CU005, (1E,6E)-1-(4-hydroxy-3-methoxyphenyl)-7-(4-methanesulfonylphenyl)hepta-1,6-diene-3,5-dione] | 117 to 120 | – | pIC50 (aggregated Aβ1-42): 5.48
2 | COc1cc(/C=C/C(=O)CC(=O)/C=C/c2ccc(N(C)C)c3ccccc23)ccc1O [CU019, (1E,6E)-1-(4-dimethylaminonaphthalen-1-yl)-7-(4-hydroxy-3-methoxyphenyl)hepta-1,6-diene-3,5-dione] | – | – | pIC50 (aggregated Aβ1-42): 6.40
3 | COc1cc(/C=C/C(=O)CC(=O)/C=C/c2ccc[nH]2)ccc1O [CU022, (1E,6E)-1-(4-hydroxy-3-methoxyphenyl)-7-(1H-pyrrol-2-yl)hepta-1,6-diene-3,5-dione] | 83 to 87 | – | pIC50 (aggregated Aβ1-42): 5.28
4 | Cc1ccc(/C=C/C(=O)CC(=O)/C=C/c2ccc(O)cc2)cc1C [CU056, (1E,6E)-1-(3,4-dimethylphenyl)-7-(4-hydroxyphenyl)hepta-1,6-diene-3,5-dione] | 150 to 152 | – | pIC50 (Aβ1-42): 6.55
5 | O=C(/C=C/c1ccc(O)cc1)CC(=O)/C=C/c1cccc(O)c1 [CU078, (1E,6E)-1-(3-hydroxyphenyl)-7-(4-hydroxyphenyl)hepta-1,6-diene-3,5-dione] | 217 | – | pIC50 (Aβ1-42): 7.05; MEC, minimal effective concentration (cytoprotection) [1]: 0.1 µM
6 | O=C(/C=C/c1ccc(O)cc1)CC(=O)/C=C/c1ccccc1O [CU080, (1E,6E)-1-(2-hydroxyphenyl)-7-(4-hydroxyphenyl)hepta-1,6-diene-3,5-dione] | – | – | MEC, minimal effective concentration (cytoprotection) [1]: 1.0 µM
7 | O=C(/C=C/c1ccc(O)cc1)CC(=O)/C=C/c1cc(O)cc(O)c1 [CU092, (1E,6E)-1-(3,5-dihydroxyphenyl)-7-(4-hydroxyphenyl)hepta-1,6-diene-3,5-dione] | 238 to 241 | – | MEC, minimal effective concentration (cytoprotection) [1]: 3.0 µM
8 | O=C(/C=C/c1ccc(O)cc1)CC(=O)/C=C/c1cc(O)ccc1[N+](=O)[O-] [CU131, (1E,6E)-1-(4-hydroxyphenyl)-7-(5-hydroxy-2-nitrophenyl)hepta-1,6-diene-3,5-dione] | 187 to 194 | inhibitory effect on BACE-1 activity at relatively low concentration | –
9 | O=C(/C=C/c1cc(O)ccc1[N+](=O)[O-])CC(=O)/C=C/c1cc(O)ccc1[N+](=O)[O-] [CU381, (1E,6E)-1,7-bis(5-hydroxy-2-nitrophenyl)hepta-1,6-diene-3,5-dione] | 253 to 262 | inhibitory effect on BACE-1 activity at relatively low concentration | –
10 | COc1cc(/C=C/C(=O)CC(=O)/C=C/c2ccc(O)c(OC)c2)ccc1O [curcumin, reference compound] | – | – | MEC, minimal effective concentration (cytoprotection) [1]: 10 µM

Second part, led by results:

Row | melting point [°C] | Compound | inhibitory effect on BACE-1 activity (IC50 shown in FIG. 2) (recombinant human BACE-1) | further results
11 | 147 to 152 | COc1cc(/C=C/C(=O)CC(=O)/C=C/c2cc(O)ccc2[N+](=O)[O-])ccc1O [CU132, (1E,6E)-1-(4-hydroxy-3-methoxyphenyl)-7-(5-hydroxy-2-nitrophenyl)hepta-1,6-diene-3,5-dione] | inhibitory effect on BACE-1 activity at relatively low concentration | –
12 | 107 to 111 | COc1ccc(/C=C/C(=O)CC(=O)/C=C/c2cc(O)ccc2[N+](=O)[O-])cc1O [CU133, (1E,6E)-1-(3-hydroxy-4-methoxyphenyl)-7-(5-hydroxy-2-nitrophenyl)hepta-1,6-diene-3,5-dione] | inhibitory effect on BACE-1 activity at relatively low concentration | –
13 | 100 to 105 | COc1cc(N(C)C)ccc1/C=C/C(=O)CC(=O)/C=C/c1ccc(O)cc1 [CU153, (1E,6E)-1-(4-dimethylamino-2-methoxyphenyl)-7-(4-hydroxyphenyl)hepta-1,6-diene-3,5-dione] | – | pIC50 (Aβ1-42): 6.06
14 | 183 to 186 | COc1ccc(O)cc1/C=C/C(=O)CC(=O)/C=C/c1ccc(O)cc1 [CU177, (1E,6E)-1-(4-hydroxyphenyl)-7-(5-hydroxy-2-methoxyphenyl)hepta-1,6-diene-3,5-dione] | – | pIC50 (Aβ1-42): 5.96
15 | 238 to 243 | O=C(/C=C/c1ccc(O)cc1)CC(=O)/C=C/c1ccc2cc[nH]c2c1 [CU189, (1E,6E)-1-(4-hydroxyphenyl)-7-(1H-indol-6-yl)hepta-1,6-diene-3,5-dione] | inhibitory effect on BACE-1 activity at relatively low concentration | inhibition of BACE-1 enzyme activity (inhibitory activities (%) shown in FIG. 1) [2]: strongly inhibited
16 | 228 to 232 | O=C(/C=C/c1ccc(O)cc1)CC(=O)/C=C/c1c[nH]c2cccc([N+](=O)[O-])c12 [CU461, (1E,6E)-1-(4-hydroxyphenyl)-7-(4-nitro-1H-indol-3-yl)hepta-1,6-diene-3,5-dione] | inhibitory effect on BACE-1 activity at relatively low concentration | –
17 | 168 to 172 | O=C(/C=C/c1ccc(O)cc1)CC(=O)/C=C/c1cc(OCc2ccccc2)ccc1[N+](=O)[O-] [CU475, (1E,6E)-1-(5-benzyloxy-2-nitrophenyl)-7-(4-hydroxyphenyl)hepta-1,6-diene-3,5-dione] | inhibitory effect on BACE-1 activity at relatively low concentration | –
18 | 45 to 50 | O=C(/C=C/c1ccc2ccn(Cc3ccccc3)c2c1)CC(=O)CCc1ccc(O)cc1 [CU520, (E)-1-(1-benzyl-1H-indol-6-yl)-7-(4-hydroxyphenyl)hept-1-ene-3,5-dione] | inhibitory effect on BACE-1 activity at relatively low concentration | –
19 | 62 to 70 | O=C(/C=C/c1cc(O)ccc1[N+](=O)[O-])CC(=O)CCc1ccc(O)cc1 [CU530, (E)-1-(5-hydroxy-2-nitrophenyl)-7-(4-hydroxyphenyl)hept-1-ene-3,5-dione] | inhibitory effect on BACE-1 activity at relatively low concentration | –
20 | 182 to 186 | O=C(/C=C/c1ccc(O)cc1)CC(=O)/C=C/c1cc(O)ccc1Br [CU532, (1E,6E)-1-(2-bromo-5-hydroxyphenyl)-7-(4-hydroxyphenyl)hepta-1,6-diene-3,5-dione] | inhibitory effect on BACE-1 activity at relatively low concentration | –

Reference: patent US8962674B2 (Tokyo Institute of Technology, priority 2006, dated 2015)
